Here are results for 21 compounds from article PMC7835927, “Natural Polyhydroxy Flavonoids, Curcuminoids, and Synthetic Curcumin Analogs as α7 nAChRs Positive Allosteric Modulators” (International Journal of Molecular Sciences, 2021).

Where two headings read alike, the source gives them in different places.

As usually defined, the EC50 is the concentration that produces a half-maximal response.

For data set [1], the target named is T1, human α7 nAChRs (Homo sapiens, UniProt P36544).
T1 construct: expressed in transfected cells; host or cells: Xenopus laevis oocytes injected with in vitro transcribed capped cRNA (pSP64T derivatives)
Put plainly: Two-electrode voltage-clamp in Xenopus oocytes expressing human α7 nAChRs: potentiation of ACh-evoked currents. The settings on record: for activity at 10 µM: read-out: % ± s.e. Current vs. ACh [200 µM]; for % ± s.e. Current Vs. ACh [200 µM]: Table 2; for % ± s.e. Current Vs. ACh [200 µM] / % ± s.e. Current vs. ACh [200 µM]: compound 10 µM co-applied with 200 µM ACh, −80 mV, normalized to ACh alone, 6–10 oocytes; for PAM properties / effect on ACh-induced currents, in words: 10 µM screening; for % ± s.e. Current vs. ACh [200 µM]: Table 1; for maximal potentiating effect: concentration-response, co-applied with ACh 200 µM, estimated; for maximal potentiating effect / nH of ACh concentration-response curve / Imax of ACh concentration-response curve: Hill fit. It is filed as cell-based. As to the method:
The obtained compounds were screened to determine their capacity to modulate the α7 nAChR activity (Table 2).
All human nAChR cDNAs were cloned in derivatives of the pSP64T vector containing part of the pBluescript polylinker. Capped mRNA was synthesized in vitro using SP6 RNA polymerase, the mMESSAGEmMACHINE kit from Ambion (Thermo Fisher Scientific, Madrid, Spain), and the pSP64T derivatives mentioned above. Defoliculated Xenopus laevis oocytes were injected with 5 ng of each subunit cRNA in 50 nL of sterile water. All experiments were performed within 2–3 days after cRNA injection. […] Barium, instead of calcium, was used as the extracellular divalent cation to avoid the presence of calcium-activated chloride currents. […] All experiments were performed at 22 °C. The holding potential was usually −80 mV. Current records were measured with Clampfit 10.0 (MDS Analytical Technologies, Sunnyvale, CA, USA). […] Data are expressed as mean ± SEM. All chemicals were purchased from Sigma-Aldrich (St. Louis, MO, USA).

Data set [2] in a line: Chemical stability in H2O/acetonitrile 20/80 checked by HPLC. It is filed as physicochemical. Conditions: period of two months. An excerpt: To discard any possible artefacts due to decomposition of the compounds in solution, the chemical stability of the best compounds 17, 23, and 25 was checked in aqueous mixtures of H2O/acetonitrile 20/80 for a period of two months.
A short description of data set [3]: Solubility as noted in the concentration-response experiments. It is filed as physicochemical. Conditions: hindered the use of higher concentrations in the curves. The method, then: Figure 1 Characterization of curcumin (12) and two curcuminoids (compounds 13 and 14). (a–c) Ionic currents recorded in representative oocytes expressing human α7 nAChRs. […] All currents were recorded at a holding potential of –80 mV. […] Continuous lines represent the fit to the Hill equation. […] Thus, maximal potentiating effects were estimated as 11 ± 3-, 5.5 ± 0.3-, and 5.5 ± 1.0-fold for compounds 12, 13, and 14, respectively. […] Data were taken from 3–7 oocytes from at least 2 donors.

In data set [4] the test system is α7 nAChRs. The settings on record: cited from earlier work; for reported profile on ACh-evoked α7 nAChR currents in oocytes: oocytes expressing α7 nAChRs.
Setting [5] is: read-out: EC50 of potentiating effect.
[6] abbreviates: in the presence of compound 13 vs absence.

T1 sequence (P36544 23-502): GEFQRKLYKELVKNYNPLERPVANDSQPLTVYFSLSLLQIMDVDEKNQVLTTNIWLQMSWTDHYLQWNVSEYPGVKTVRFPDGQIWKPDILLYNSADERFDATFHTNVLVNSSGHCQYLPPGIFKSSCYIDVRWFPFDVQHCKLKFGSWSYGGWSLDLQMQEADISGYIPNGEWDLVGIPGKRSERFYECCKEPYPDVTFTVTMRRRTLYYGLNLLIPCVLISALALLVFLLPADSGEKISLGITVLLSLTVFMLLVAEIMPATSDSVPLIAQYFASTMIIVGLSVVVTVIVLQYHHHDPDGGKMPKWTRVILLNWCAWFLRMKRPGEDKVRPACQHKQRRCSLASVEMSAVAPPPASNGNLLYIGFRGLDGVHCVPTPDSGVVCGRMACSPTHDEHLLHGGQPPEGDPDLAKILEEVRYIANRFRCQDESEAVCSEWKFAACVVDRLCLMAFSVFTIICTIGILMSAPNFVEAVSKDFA

On to `O=C1c2c(O)cc(O)cc2OC(c2ccc(O)c(O)c2)C1O` (stereo not drawn) [Compound 10, Taxifolin], for which the activity at 10 µM in data set [1] was found to be 107 ± 5.5%.

Take `O=c1cc(-c2ccc(O)cc2)oc2cc(O)cc(O)c12` [Compound 1, Apigenin]: in data set [1], the activity at 10 µM is 108 ± 4%.

Regarding `O=C(/C=C(\O)CCc1ccc(O)cc1O)CCc1ccc(O)cc1O` [Compound 25, (Z)-1,7-Bis(2,4-dihydroxyphenyl)-5-hydroxyhept-4-en-3-one], in data set [1], the “% ± s.e. Current Vs. ACh [200 µM]” value is reported as 251 ± 24%. Also, the “chemical stability in solution (HPLC retention times and purity)” value (from here on “chemical stability in solution”) in data set [2] is “no alteration on the retention times and purity”.

Take `O=c1c(O)c(-c2cc(O)c(O)c(O)c2)oc2cc(O)cc(O)c12` [Compound 7, Myricetin]: the activity at 10 µM in data set [1] was 97 ± 6%.

Regarding `COc1ccc(/C=C/C(=O)/C=C(O)/C=C/c2ccc(OC)cc2OC)c(OC)c1` [Compound 17, (1E,4Z,6E)-1,7-Bis(2,4-dimethoxyphenyl)-5-hydroxyhepta-1,4,6-trien-3-one], in data set [2], the “chemical stability in solution” value was “no alteration on the retention times and purity”.

In the case of `O=c1cc(-c2ccc(O)c(O)c2)oc2cc(O)cc(O)c12` [Compound 3, Luteolin], the activity at 10 µM in data set [1] was 125 ± 5.5%.

`COc1ccc(CCC(=O)/C=C(\O)CCc2ccc(OC)cc2OC)c(OC)c1` [Compound 23, (Z)-1,7-Bis(2,4-dimethoxyphenyl)-5-hydroxyhept-4-en-3-one]: in data set [1], the “% ± s.e. Current Vs. ACh [200 µM]” value came to 498 ± 7%. Moreover, the “Maximal activation over the control” value in data set [1] (already observed at 1 µM, ACh 200 µM) was “about 3 fold”. Moreover, the EC50 in data set [1] (setting [5]) was determined as 0.44 ± 0.28 µM. Also, the “chemical stability in solution” value in data set [2] was “no alteration on the retention times and purity”.

With `O=C(CCc1ccc(O)cc1)c1c(O)cc(O)cc1O` [Compound 11, Phloretin], the activity at 10 µM in data set [1] stood at 231 ± 0.5%.

In the case of “(1E, 4Z, 6E) -1-(2,4-Dimethoxyphenyl)-7-(2-fluoro-4-methoxyphenyl)-5-hydroxyhepta-1,4,6 -trien-3-one [Compound 22]”, the “PAM properties / effect on ACh-induced currents, in words” value (shortened to “PAM properties / effect”) in data set [1] (ACh 200 µM) is “increases them only slightly”. Moreover, the “% ± s.e. Current Vs. ACh [200 µM]” value in data set [1] is 153 ± 17%.

`O=c1c(O)c(-c2ccc(O)c(O)c2)oc2c(O)c(O)cc(O)c12` [Compound 5, Gossypetin]: in data set [1], the activity at 10 µM was 115 ± 2%.

On to “(Z)-1-(2,4-Dimethoxyphenyl)-7-(2,5-dimethoxyphenyl)-5-hydroxyhept-4-en-3-one [Compound 24]”, for which, in data set [1] (ACh 200 µM), the “PAM properties / effect” value is recorded as “No significant PAM properties”. Moreover, the “% ± s.e. Current Vs. ACh [200 µM]” value in data set [1] was determined as 53.5 ± 3.5%.

`COc1cc(/C=C/C(O)=C/C(=O)/C=C/c2ccc(O)cc2)ccc1O` [Compound 13, Demethoxycurcumin]: the “solubility, in words” value in data set [3] is “Limited solubility”. Also, in data set [1], the EC50 was 4.9 µM, the “% ± s.e. Current vs. ACh [200 µM]” value came to 408 ± 18%, the maximal potentiating effect was 5.5 ± 0.3 fold and the activity at 10 µM is 408%. For the same compound, the “nH of ACh concentration-response curve” value in data set [1] (in the presence of 3 µM 13) was 2.36. For the same compound, the “Imax of ACh concentration-response curve” value in data set [1] (in the presence of 3 µM 13, normalized to control peak current with 1 mM ACh) is reported as 2.70. In data set [1] (setting [6]), the “increase in apparent efficacy of ACh” value was found to be 2 fold and the “leftward shift of ACh dose-response curve” value amounted to 3 fold.

`CC(=O)OCC[N+](C)(C)C` [ACh, acetylcholine]: in data set [1] (control conditions (ACh alone)), the “nH of ACh concentration-response curve” value is 1.25. The “Imax of ACh concentration-response curve” value in data set [1] (control conditions (ACh alone), normalized to peak current with 1 mM ACh) is recorded as 1.25.

As to `COc1cc(/C=C/C(=O)CC(=O)/C=C/c2ccc(O)c(OC)c2)ccc1O` [Compound 12, Curcumin], in data set [3], the “solubility, in words” value was “Limited solubility”. Further, the “reported type of α7 nAChR modulation” value in data set [4] is recorded as “Type II PAM”. Moreover, in data set [1], the maximal potentiating effect is 11 ± 3 fold and the activity at 10 µM was determined as 148 ± 43%. In addition, the “enhancement of ACh-induced currents” value in data set [1] (maximal effect from concentration-response, only approximated) is given as around 1100%. The EC50 in data set [1] (setting [5]) is 85 ± 35 µM.

As for “(1E, 4Z, 6E)-1-(2,4-Dimethoxyphenyl)-7-(2,5-dimethoxyphenyl)-5-hydroxyhepta-1,4,6-trien-3-one [Compound 21]”, in data set [1] (ACh 200 µM), the “PAM properties / effect” value is listed as “No significant PAM properties”. Also, the “% ± s.e. Current Vs. ACh [200 µM]” value in data set [1] was 107 ± 4%.

For `O=c1c(-c2ccc(O)cc2)coc2cc(O)cc(O)c12` [Compound 4, Genistein], in data set [4], the “reported profile on ACh-evoked α7 nAChR currents in oocytes” value was “PAM profile”. The activity at 10 µM in data set [1] turned out to be 154 ± 10%.

With `O=c1c(O)c(-c2ccc(O)cc2)oc2cc(O)cc(O)c12` [Compound 6, Kaempferol], in data set [1], the activity at 10 µM amounted to 155 ± 5%.

As to `O=C1C[C@@H](c2ccc(O)c(O)c2)Oc2cc(O)cc(O)c21` [Compound 8, Eriodictyol], the activity at 10 µM in data set [1] was 108 ± 2.5%.

Regarding `O=C(/C=C/c1ccc(O)cc1)CC(=O)/C=C/c1ccc(O)cc1` [Compound 14, Bisdemethoxycurcumin], in data set [3], the “solubility, in words” value is listed as “Limited solubility”. Also, in data set [1], the “% ± s.e. Current vs. ACh [200 µM]” value came to 469 ± 42%, the maximal potentiating effect is given as 5.5 ± 1.0 fold and the activity at 10 µM was determined as 469%. In addition, the EC50 in data set [1] (setting [5]) stood at 6.9 ± 3.1 µM.

In the case of `O=C1C[C@@H](c2ccc(O)cc2)Oc2cc(O)cc(O)c21` [Compound 9, Naringenin], the activity at 10 µM in data set [1] was found to be 105 ± 3%.

Take `O=c1c(O)c(-c2ccc(O)c(O)c2)oc2cc(O)cc(O)c12` [Compound 2, Quercetin]: the “reported profile on ACh-evoked α7 nAChR currents in oocytes” value in data set [4] is “PAM profile”. Also, the “% ± s.e. Current vs. ACh [200 µM]” value in data set [1] is reported as 130 ± 10%.
